Here are results for four compounds from ChEMBL document CHEMBL1151140, “Enantiomeric Relationships and Anthelmintic Activity of Dysinin Derivatives from Dysidea Marine Sponges” (J Nat Prod, 1990).

The source made the active and inactive calls. No cut-off for these calls is given here.

The subject of assay [1] is Nippostrongylus brasiliensis. Nature of the assay: Anthelmintic activity against Nippostrongylus brasiliensis at 50 ug/ml. The assay is classed as functional, organism-based.
In another assay the test system is Nippostrongylus. Nature of the assay: Anthelmintic activity against Nippostrongylus dubias at 1000 ppm. The assay is classed as functional, organism-based.
Assay [2] can be described thus: Anthelmintic activity against Hypselodoris nana at 1000 ppm. The assay is classed as functional.

Consider `CC1=C[C@H]2Cc3occc3C(C)(C)[C@@H]2CC1`, for which the result in assay [1] was Active. Moreover, the result (in the assay on Nippostrongylus; in assay [2]) was inactive.

`CC1(C)c2ccoc2C[C@@H]2C=C(CSSCC3=C[C@H]4Cc5occc5C(C)(C)[C@@H]4CC3)CC[C@H]21`: the result in assay [1] was Active.

Take `CO[C@]12C[C@@H]3C=C(CSC(C)=O)CC[C@H]3C(C)(C)C1=CC(=O)O2`: the outcome in assay [1] was inactive.

On to `CC(=O)SCC1=C[C@H]2Cc3occc3C(C)(C)[C@@H]2CC1`, for which the result in assay [1] was Active.
